The values that follow are results of earlier work, collected in PMC4278936 (Journal of computer-aided molecular design, 2014).

SMILES strings stand for the structures.

This data set deals with T1, PfENR (Plasmodium falciparum, UniProt Q9BH77).
T1 sequence (Q9BH77 22-432): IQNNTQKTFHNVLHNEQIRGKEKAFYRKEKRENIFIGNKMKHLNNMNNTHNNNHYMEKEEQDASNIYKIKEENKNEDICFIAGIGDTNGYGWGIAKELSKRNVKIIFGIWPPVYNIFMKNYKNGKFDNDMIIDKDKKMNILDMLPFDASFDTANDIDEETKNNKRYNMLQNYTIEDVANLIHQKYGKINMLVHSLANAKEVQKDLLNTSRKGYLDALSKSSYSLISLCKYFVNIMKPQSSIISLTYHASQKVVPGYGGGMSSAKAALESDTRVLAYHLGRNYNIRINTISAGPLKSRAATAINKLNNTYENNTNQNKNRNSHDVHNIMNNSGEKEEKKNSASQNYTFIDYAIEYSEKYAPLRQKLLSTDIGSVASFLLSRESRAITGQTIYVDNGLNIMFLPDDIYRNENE
The settings on record: ref [32], [60].

With `Oc1cc(Cl)ccc1Oc1ccc(Cl)cc1Cl` [compound 1, Triclosan], the “Concentration range in which TCL inhibits PfENR” value is reported as “picomolar to nanomolar range”.
